Read-outs that look alike come from different tables or passages of the source.
Legend:
[1] = test system: human umbilical vein endothelial cells (HUVECs); assay: HUVEC tube formation, in vitro angiogenesis assay; type: cell-based
Method: Human umbilical vein endothelial cells (HUVECs) were purchased from Clonetics, and were used between passages 4 and 9. HUVECs were cultured on 0.1% gelatin-coated (Sigma) plates in endothelial growth medium-2 (EGM-2; Clonetics) in tissue culture flasks at 37° C. in a humidified atmosphere of 5% CO2. HUVECs (10^4 cells) were seeded in a 96-well plate coated with 50 μl of ECMatrix (Chemicon) or Matrigel (BD Bioscience) according to the manufacturer's instructions. Cells were incubated for 16 h on EGM-2 containing thiabendazole, dissolved in 1% DMSO. Negative control cells were treated with 1% DMSO in the same manner. As a positive control, siRNA versus the human HoxA9 sequence^30 was transfected into HUVECs using Lipofectamine RNAiMAX (Invitrogen) according to the manufacturer's instructions. Tube formation was observed using an inverted microscope (Nikon, eclipse TS100), and branch points were measured using ImageJ software (http://rsb.info.nih.gov/ij).

[2] = mice; cited from earlier work
[3] = test system: vasculature within kdr:GFP frogs; assay: Time-lapse fluorescence microscopy of vasculature in kdr:GFP Xenopus embryos; type: in vivo, Xenopus laevis
Text: Immunohistochemistry and kdr:GFP transgenic Xenopus laevis were imaged on an inverted Zeiss LSM5 Pascal confocal microscope and Zeiss 5-LIVE Fast Scanning confocal microscope. Confocal images were processed and cropped in Imaris software (BITPLANE) and Adobe Illustrator and Adobe Photoshop for compilation of Figures.
To analyze action of TBZ precisely on inhibition of angiogenesis and disruption of vasculature, we tested TBZ on two different developmental stages. Xenopus late tailbud embryos at stage 31 were selected for testing the inhibitory effect of TBZ on angiogenesis (FIG. 3A-D). This embryonic stage coincides with the onset of intersomitic vein (ISV) angiogenesis, the process of forming smaller blood vessels by sprouting from pre-existing blood vessels. To observe disruption of existing vasculature, we selected stage 35/36 embryos in which the posterior cardinal vein (PCV) and ISV are already developed (FIG. 15).
As a direct test of the vascular disrupting activity of TBZ, we performed time-lapse imaging of developing vasculature. Using Kdr-GFP transgenic embryos^12 and time-lapse confocal microscopy^22, we could effectively image developing vasculature in vivo for periods of up 20 hours. During this time, the growth of existing blood vessels and the sprouting of new vasculature could be easily followed (FIG. 16). […] Upon longer exposures, endothelial cells scattered and many underwent dramatic rounding (FIGS. 5A, 17).

VEGF = VEGF levels in HT1080 cells (Western blotting, ELISA); type: cell-based, human; settings: 250 μM TBZ, 24 hours
Method: Cells were lysed in cell lysis buffer (Cell Signaling Technology) containing 1 mM PMSF, and analyzed by SDS-PAGE and western blotting using anti-VEGF (Santa Cruz, A-20) or anti-GAPDH (Cell Signaling Technology) antibodies. The secreted VEGF level in culture media was determined by enzyme-linked immunosorbent assay (ELISA; R&D) according to the manufacturer's instructions.

tubulin proteins = assay: Quantitative mass spectrometry of tubulins in HUVECs; type: cell-based, human; settings: 250 μM TBZ, 24 hours
Method: Following alkylation, samples were diluted in digestion buffer (50 mM Tris-HCl, pH 8.0, 2 mM CaCl2) to a final 2,2,2-trifluoroethanol concentration of 5% (v/v) and digested using proteomics grade trypsin (Sigma) at 1:50 (enzyme/protein) concentration and incubated at 37° C. for 4-5 h. Digestion was halted with the addition of 1% formic acid (v/v), and sample volume was reduced to 200 μl by SpeedVac centrifugation prior to loading on […] (Thermo). Samples were eluted (60% acetonitrile, 0.1% formic acid), reduced to 10 μl by SpeedVac centrifugation, and resuspended in sample buffer (5% acetonitrile, 0.1% formic acid). Tryptic peptides were then filtered through Microcon 10-kDa centrifugal filters (Millipore), and collected as flow-through. Peptides were chromatographically separated on a Zorbax reverse-phase C-18 column (Agilent) via a 230 min 5-38% acetonitrile gradient, then analyzed by on-line nanoelectrospray-ionization tandem mass spectrometry on an LTQ-Orbitrap (Thermo Scientific). […] Differential expression of proteins across TBZ-treated and control samples was quantified from the MS2 spectral count data using the APEX method of relative quantification^32.

[4] = rats; cited from earlier work
[5] = test system: developing Xenopus embryos; assay: Ectopic angiogenesis stimulated by VEGF-soaked beads implanted into Xenopus embryos; type: in vivo, Xenopus laevis
Method: FIG. 12. TBZ inhibits ectopic angiogenesis (note the doubled PCV in the left panel) stimulated by Affy-gel blue beads (75-150 μm diameter, indicated by white arrowheads) pre-soaked with 0.7 mg/ml vascular endothelial growth factor (VEGF) and microsurgically implanted into developing Xenopus embryos, assaying for the vasculature by ISH versus erg or apinr (showing data for erg). 6 of 8 control animals developed ectopic PCV or VV, as opposed to 0 of 9 TBZ-dosed animals (p value=0.0023).
Female adult Xenopus were ovulated by injections of human chorionic gonadotropin, and eggs were fertilized in vitro and dejellied in 3% cysteine (pH 7.9) and subsequently reared in ⅓×Marc's modified Ringer's (MMR) solution. For microinjections, embryos were placed in a solution of 2% Ficoll in ⅓×MMR solution, injected using forceps and an Oxford universal manipulator, reared in 2% Ficoll in ⅓×MMR to stage 9, then washed and reared in ⅓×MMR solution alone. For bilateral rab11b knock-down experiments, the posterior cardinal vein and intersomitic veins were targeted by injecting Morpholino antisense oligonucleotides (MOs) into the two ventral cells equatorially at the four-cell stage. For unilateral knockdown, only one ventral cell was injected. MOs were injected at 40 ng per blastomere. […]

Which results are given for c1ccc2[nH]c(-c3cscn3)nc2c1 [TBZ, 4-(1H-1,3-benzodiazol-2-yl)-1,3-thiazole]?
angiogenesis (tube formation) in HUVECs ([1]; 100 and 250 μM TBZ in 1% DMSO, 16 h): inhibited angiogenesis in a dose-dependent manner; concentration at which angiogenesis inhibition was observed ([1]; human cells in vitro): 100 to 250 µM; effect on fertility [2]: does not appear to affect fertility; exposure time after which established blood vessels disintegrated ([3]; Kdr-GFP transgenic embryos): approximately 90 minutes; growth and sprouting of blood vessels ([3]; Kdr-GFP transgenic embryos, time-lapse confocal microscopy): completely prevented; persistence of vascular gene expression in dispersed, rounded kdr-GFP+ endothelial cells after treatment ([3]; in vivo): up to 17 hours; time within which endothelial cells retract from one another and round up ([3]; in vivo imaging of the vasculature): ≤ 2 h; recovery of vasculature after washout of the drug ([3]; washout after TBZ-induced cell dispersal and rounding): significant re-spreading of endothelial cells and re-formation of blood vessels; level of VEGF expressed by HT1080 cells (Western blotting) (VEGF): did not alter; level of VEGF secreted by HT1080 cells (ELISA) (VEGF): did not alter; abundance of several tubulin proteins (tubulin proteins): significant reduction; effect on fertility [4]: does not appear to affect fertility; animals that developed ectopic PCV or VV ([5]; beads soaked with 0.7 mg/ml VEGF, control 6 of 8, p value=0.0023): 0 of 9; ectopic angiogenesis induced by ectopic VEGF ([5]; frog embryos): blocked

From patent publication US20140303216A1, “COMPOSITIONS AND METHODS FOR INDUCING DISRUPTION OF BLOOD VASCULATURE AND FOR REDUCING ANGIOGENESIS” (BOARD OF REGENTS, THE UNIVERSITY OF TEXAS SYSTEM, priority 2011, published 2014)
